Changes are numbered by the printed parent chain.
Assays:
[1] = target: T1, PLCβ2 (Homo sapiens, UniProt Q00722); test: PLC activity assay 1 (A1), PLCβ2; assay type: biochemical; details: substrate in solution or in lipid vesicles (Figure 3C, D); except small changes at very high concentration
T1 construct: made in house; host or cells: Escherichia coli T7 Express lysY/Iq
Protocol: The effect of nucleotide inhibition on PLC activity was measured using either a membrane-based assay with the fluorescent substrate (XY-69) incorporated into liposomes or using a small soluble substrate, Aldol 518 myo-inositol-1-phosphate (Aldol). Both methods utilised the same PLC assay buffer [20 mM Hepes-KOH, 70 mM KCl, 3 mM EGTA, 2.97 mM CaCl2, 2 mM TCEP and fatty acid-free bovine serum albumin (FAF-BSA; 50 μg/ml) (pH 7.5)]. Both assays were performed in low volume black 384-well plates (Greiner Bio-One), were composed of a final assay volume of 20 μl and were monitored in a Clariostar plate reader (BMG Labtech). The Aldol assay consisted of 4 μl of a serial dilution of ATP/ADP in assay buffer, 8 μl of PLC protein (concentration varied between PLC variants), and 8 μl of Aldol 518 myo-inositol-1-phosphate (final concentration in assay, 50 μM). […]
The XY-69 assay contained 4 μl of a serial dilution of ATP/ADP in assay buffer, 4 μl of PLC protein (concentration varied between PLC variants), and 12 μl of XY69 liposomes (final concentration in assay 1.2 mg/ml). A CLARIOstar plate reader (BMG Labtech) was used to measure the production of the fluorescent product. […] The initial linear rate of product generation was calculated and converted to a % inhibition when compared with the rate of PLC activity in the absence of nucleotide. […]

[2] = target: T2, PLCγ1^wt (Homo sapiens, UniProt P19174, I813T); test: Microscale thermophoresis (MST) binding; details: one-site binding model
T2 construct: specific activities of PLCγ1^wt and PLCγ2^wt full-length proteins; made in house; host or cells: Escherichia coli T7 Express lysY/Iq
T2 sequence (P19174 1-1291 isoform P19174-2 I813T): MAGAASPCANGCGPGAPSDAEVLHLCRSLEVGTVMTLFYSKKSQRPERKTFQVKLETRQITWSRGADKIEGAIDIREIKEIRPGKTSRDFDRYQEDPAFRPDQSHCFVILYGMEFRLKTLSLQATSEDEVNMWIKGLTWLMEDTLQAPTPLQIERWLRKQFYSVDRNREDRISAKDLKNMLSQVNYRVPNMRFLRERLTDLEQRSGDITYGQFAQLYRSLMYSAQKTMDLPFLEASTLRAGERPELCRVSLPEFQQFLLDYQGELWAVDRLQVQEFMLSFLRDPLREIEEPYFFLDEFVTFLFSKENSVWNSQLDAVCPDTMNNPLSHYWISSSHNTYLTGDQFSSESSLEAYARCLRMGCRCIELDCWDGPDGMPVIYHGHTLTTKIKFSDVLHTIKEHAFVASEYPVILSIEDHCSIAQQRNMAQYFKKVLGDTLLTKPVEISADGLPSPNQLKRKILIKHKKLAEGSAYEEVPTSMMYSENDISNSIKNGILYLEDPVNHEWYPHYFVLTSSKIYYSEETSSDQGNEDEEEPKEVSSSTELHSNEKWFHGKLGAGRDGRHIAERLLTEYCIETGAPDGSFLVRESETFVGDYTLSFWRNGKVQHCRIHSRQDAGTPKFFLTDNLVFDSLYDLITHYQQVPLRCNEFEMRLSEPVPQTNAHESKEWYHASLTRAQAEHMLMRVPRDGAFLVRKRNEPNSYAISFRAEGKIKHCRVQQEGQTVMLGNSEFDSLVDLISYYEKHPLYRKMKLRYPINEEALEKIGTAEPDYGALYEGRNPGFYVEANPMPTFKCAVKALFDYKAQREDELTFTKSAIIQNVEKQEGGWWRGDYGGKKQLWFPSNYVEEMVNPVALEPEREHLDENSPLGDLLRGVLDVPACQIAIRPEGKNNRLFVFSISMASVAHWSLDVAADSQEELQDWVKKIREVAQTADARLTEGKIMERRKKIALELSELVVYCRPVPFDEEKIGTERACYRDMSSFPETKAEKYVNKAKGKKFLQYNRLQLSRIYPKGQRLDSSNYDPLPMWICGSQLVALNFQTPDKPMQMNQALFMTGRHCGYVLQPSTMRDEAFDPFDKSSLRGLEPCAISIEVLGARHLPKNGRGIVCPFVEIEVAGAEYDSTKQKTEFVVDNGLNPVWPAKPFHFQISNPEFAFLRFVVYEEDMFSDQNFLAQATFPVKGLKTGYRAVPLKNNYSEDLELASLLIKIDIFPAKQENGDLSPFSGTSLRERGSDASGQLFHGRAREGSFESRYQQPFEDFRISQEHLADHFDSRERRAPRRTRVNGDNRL
Protocol: (§1) Proteins were diluted to 200 nM in MST buffer [50 mM Hepes.KOH, 70 mM KCl, 5% (v/v) glycerol, 0.05% (v/v) Tween-20, 2 mM DTT (pH 7.5)] and subsequently labelled by adding an equal volume of 100 nM 2nd generation RED-Tris-NTA labelling dye and incubating for 30 minutes. […] An equal volume of labelled protein was added to each ligand concentration and the mixture taken up into a standard MST capillary. Samples were measured in a Monolith NT.115 pico instrument (Nanotemper) using the Nano-RED channel. Excitation power was set to 5% and MST power set to high. All experiments were performed at 25°C. All data were analysed using the manufacturer’s MO.Control software and repeated at least three times with representative experiments shown.

[3] = target: T3, PLCγ1^K491D (Homo sapiens, UniProt P19174, I813T/K491D); test: Microscale thermophoresis (MST) binding, K491D variant; details: read-out: estimated Kd, MST, PLCγ1^K491D
T3 construct: made in house; host or cells: Escherichia coli T7 Express lysY/Iq
T3 sequence (P19174 1-1291 isoform P19174-2 K491D/I813T): T2 sequence (P19174 1-1291 isoform P19174-2 I813T) with K491D
Protocol: as §1

T1 sequence (Q00722 whole entry, species assumed): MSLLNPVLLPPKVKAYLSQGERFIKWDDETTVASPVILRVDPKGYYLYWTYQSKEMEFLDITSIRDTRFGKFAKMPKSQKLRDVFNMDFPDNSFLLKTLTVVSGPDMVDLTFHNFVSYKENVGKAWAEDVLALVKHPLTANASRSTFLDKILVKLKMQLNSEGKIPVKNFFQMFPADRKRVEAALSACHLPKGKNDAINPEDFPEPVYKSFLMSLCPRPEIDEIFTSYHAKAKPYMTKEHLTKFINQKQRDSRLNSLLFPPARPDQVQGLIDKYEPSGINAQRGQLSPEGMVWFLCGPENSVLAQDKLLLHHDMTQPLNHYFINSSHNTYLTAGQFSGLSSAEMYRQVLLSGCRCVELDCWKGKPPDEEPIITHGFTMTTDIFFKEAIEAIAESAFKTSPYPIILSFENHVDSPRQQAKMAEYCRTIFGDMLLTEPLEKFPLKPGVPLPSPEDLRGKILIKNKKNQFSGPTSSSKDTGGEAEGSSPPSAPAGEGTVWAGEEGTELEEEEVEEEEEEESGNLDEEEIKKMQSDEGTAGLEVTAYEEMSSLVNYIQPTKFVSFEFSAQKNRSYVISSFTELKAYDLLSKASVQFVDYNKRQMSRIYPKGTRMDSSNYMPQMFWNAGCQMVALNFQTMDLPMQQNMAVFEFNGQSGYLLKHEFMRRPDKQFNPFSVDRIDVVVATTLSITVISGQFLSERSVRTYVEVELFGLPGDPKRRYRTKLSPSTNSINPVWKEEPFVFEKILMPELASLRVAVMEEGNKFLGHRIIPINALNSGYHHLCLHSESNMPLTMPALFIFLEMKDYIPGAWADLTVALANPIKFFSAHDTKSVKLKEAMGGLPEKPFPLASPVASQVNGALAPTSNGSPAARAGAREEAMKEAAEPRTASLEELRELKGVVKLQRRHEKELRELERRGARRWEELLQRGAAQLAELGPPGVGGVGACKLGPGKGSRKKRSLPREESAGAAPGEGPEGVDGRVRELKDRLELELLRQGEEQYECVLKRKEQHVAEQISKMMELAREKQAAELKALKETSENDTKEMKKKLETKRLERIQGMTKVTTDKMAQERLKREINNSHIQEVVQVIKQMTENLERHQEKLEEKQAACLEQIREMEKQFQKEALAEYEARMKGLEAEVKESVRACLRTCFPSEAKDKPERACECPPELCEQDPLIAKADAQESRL

With `Nc1ncnc2c1ncn2[C@@H]1O[C@H](COP(=O)(O)OP(=O)(O)O)[C@@H](O)[C@H]1O` [ADP] the “effect on PLC activity of PLCβ2” value [1] was “not affected”, the Kd [2] was 30 to 50 µM and the Kd [3] was 1000 to 2000 µM.

`Nc1ncnc2c1ncn2[C@@H]1O[C@H](COP(=O)(O)OP(=O)(O)OP(=O)(O)O)[C@@H](O)[C@H]1O` [ATP] was tested, and the “effect on PLC activity of PLCβ2” value [1] was “not affected”, the Kd [2] was 30 to 50 µM and the Kd [3] was ~700 µM.
